In patent US10857138B2, “Pharmaceutical compositions comprising antibacterial agents” (WOCKHARDT LIMITED, priority 2014, dated 2020):

What was measured:
[1] = test system: Klebsiella pneumoniae B 88 strain producing NDM-1, SHV, TEM and CTXM beta-lactamase enzymes; assay: Time kill study against K. pneumoniae B 88; format: cell-based; parameters: Effect on bacterial count when used alone: dose or concentration left out as unconfirmed; settings: for Bacterial count (Log10CFU/ml) 2 hours / Bacterial count (Log10CFU/ml) 4 hours / Bacterial count (Log10CFU/ml) 6 hours / Bacterial count (Log10CFU/ml) 8 hours: each agent at 4 mcg/ml, alone or in combination; for Effect on bacterial count when used alone: used alone at 4 mcg/ml, throughout the duration of the study
Experimental: (§1) In a typical time kill study, the freshly grown cultures were diluted to the required cell density (initial starting inoculum) in Cation adjusted Muller Hinton broth medium (BD, USA). The antibacterial agents (either alone or in combination) at the required concentrations were added into the culture-containing medium. The samples were incubated under shaking condition (120 rpm) at 37° C. Enumeration of viable bacterial count was done every 2 hour by diluting in normal saline and plating on to the Tryptic Soya Agar plates (BD, USA). The plates were incubated for 24 hours to arrive at the viable bacterial count. […] In general, the decrease of 1 Log CFU/ml, corresponds to 90% killing of bacteria. Similarly, 2 Log CFU/ml reductions indicates to 99% killing of bacteria and 3 Log CFU/ml reductions is equal to 99.9% killing of bacteria.
(§2) The assay without any antibacterial agent was taken as control.

[2] = test system: Klebsiella pneumoniae NCTC 13443 strain producing NDM-1, SHV and TEM beta-lactamase enzymes; assay: Time kill study against K. pneumoniae NCTC 13443; format: cell-based; settings: for Bacterial count (Log10CFU/ml) 2 hours / Bacterial count (Log10CFU/ml) 4 hours / Bacterial count (Log10CFU/ml) 6 hours / Bacterial count (Log10CFU/ml) 8 hours: each agent at 4 mcg/ml, alone or in combination; for Effect on bacterial count when used alone: used alone at 4 μg/ml, throughout the duration of the study
Experimental: as §1, §2

Row | Structure (SMILES) | Bacterial count (Log10CFU/ml) 2 hours [1] | Bacterial count (Log10CFU/ml) 4 hours [1] | Bacterial count (Log10CFU/ml) 6 hours [1] | Bacterial count (Log10CFU/ml) 8 hours [1] | Effect on bacterial count when used alone [1] | Bacterial count (Log10CFU/ml) 2 hours [2] | Bacterial count (Log10CFU/ml) 4 hours [2] | Bacterial count (Log10CFU/ml) 6 hours [2] | Bacterial count (Log10CFU/ml) 8 hours [2] | Effect on bacterial count when used alone [2]
1 | C[C@H]1[C@H](NC(=O)/C(=N\OC(C)(C)C(=O)O)c2csc(N)n2)C(=O)N1S(=O)(=O)O [Aztreonam, reference compound] | 8.16 Log10CFU/ml | 8.7 Log10CFU/ml | 8.88 Log10CFU/ml | 9.04 Log10CFU/ml | not effective to decrease the bacterial count | 8.38 Log10CFU/ml | 8.65 Log10CFU/ml | 9.02 Log10CFU/ml | 9.55 Log10CFU/ml | not effective to decrease the bacterial count
2 | N#C[C@@H]1CC[C@@H]2CN1C(=O)N2OS(=O)(=O)[O-].[Na+] [Compound A, Sodium salt of trans-7-oxo-6-sulphooxy-1,6-diazabicyclo[3.2.1]-octane-2-carbonitrile] | 8 Log10CFU/ml | 8.2 Log10CFU/ml | 8.5 Log10CFU/ml | 8.8 Log10CFU/ml | not effective to decrease the bacterial count | 8.3 Log10CFU/ml | 8.5 Log10CFU/ml | 8.8 Log10CFU/ml | 9 Log10CFU/ml | not effective to decrease the bacterial count
3 | NC(=O)c1nnc([C@@H]2CC[C@@H]3CN2C(=O)N3OS(=O)(=O)O)o1 [Compound B] | 7.98 Log10CFU/ml | 8.2 Log10CFU/ml | 8.50 Log10CFU/ml | 8.9 Log10CFU/ml | not effective to decrease the bacterial count | 8.3 Log10CFU/ml | 8.5 Log10CFU/ml | 8.8 Log10CFU/ml | 8.9 Log10CFU/ml | not effective to decrease the bacterial count
4 | O=C1N2C[C@@H](CC[C@H]2c2nnc(C3CCNCC3)o2)N1OS(=O)(=O)O [Compound C] | 8.1 Log10CFU/ml | 8.15 Log10CFU/ml | 8.65 Log10CFU/ml | 8.9 Log10CFU/ml | not effective to decrease the bacterial count | 8.2 Log10CFU/ml | 8.9 Log10CFU/ml | 9 Log10CFU/ml | 9.5 Log10CFU/ml | not effective to decrease the bacterial count
5 | O=C1N2C[C@@H](CC[C@H]2c2nnc(CC3CNC3)o2)N1OS(=O)(=O)O [Compound D] | 8.05 Log10CFU/ml | 8.3 Log10CFU/ml | 8.7 Log10CFU/ml | 8.8 Log10CFU/ml | not effective to decrease the bacterial count | 8.3 Log10CFU/ml | 8.55 Log10CFU/ml | 8.95 Log10CFU/ml | 9.2 Log10CFU/ml | not effective to decrease the bacterial count
6 | O=C(NNC(=O)[C@@H]1CC[C@@H]2CN1C(=O)N2OS(=O)(=O)O)[C@@H]1CCCNC1 [Compound E, (2S,5R)-7-Oxo-6-sulphooxy-2-[N′—((R)-piperidine-3-carbonyl)-hydrazinocarbonyl]-1,6-diaza-bicyclo[3.2.1]octane] | 7.9 Log10CFU/ml | 8.3 Log10CFU/ml | 8.8 Log10CFU/ml | 8.9 Log10CFU/ml | not effective to decrease the bacterial count | 8.35 Log10CFU/ml | 8.6 Log10CFU/ml | 8.8 Log10CFU/ml | 8.9 Log10CFU/ml | not effective to decrease the bacterial count
7 | O=C(NOC[C@@H]1CCCN1)[C@@H]1CC[C@@H]2CN1C(=O)N2OS(=O)(=O)O [Compound F, (2S,5R)-7-Oxo-N-[(2S)-pyrrolidin-2-ylmethoxy]-6-(sulfooxy)-1,6-diaza bicyclo[3.2.1]octane-2-carboxamide] | 8 Log10CFU/ml | 8.2 Log10CFU/ml | 8.35 Log10CFU/ml | 8.7 Log10CFU/ml | not effective to decrease the bacterial count | 8.4 Log10CFU/ml | 8.7 Log10CFU/ml | 8.9 Log10CFU/ml | 9.1 Log10CFU/ml | not effective to decrease the bacterial count
8 | O=C(NNC(=O)[C@@H]1CC[C@@H]2CN1C(=O)N2OS(=O)(=O)O)[C@@H]1CCNC1 [Compound G, (2S,5R)-7-Oxo-6-sulphooxy-2-[N′—((R)-pyrrolidine-3-carbonyl)-hydrazinocarbonyl]-1,6-diaza-bicyclo[3.2.1]octane] | 7.95 Log10CFU/ml | 8.05 Log10CFU/ml | 8.7 Log10CFU/ml | 8.98 Log10CFU/ml | not effective to decrease the bacterial count | 8.36 Log10CFU/ml | 8.78 Log10CFU/ml | 8.9 Log10CFU/ml | 9.2 Log10CFU/ml | not effective to decrease the bacterial count
9 | O=C(NOC[C@@H]1CCCCN1)[C@@H]1CC[C@@H]2CN1C(=O)N2OS(=O)(=O)O [Compound H, (2S,5R)-7-Oxo-N-[(2S)-piperidine-2-ylmethyloxy]-6-(sulfooxy)-1,6-diazabicyclo[3.2.1]octane-2-carboxamide] | 8.15 Log10CFU/ml | 8.3 Log10CFU/ml | 8.65 Log10CFU/ml | 8.98 Log10CFU/ml | not effective to decrease the bacterial count | 8.35 Log10CFU/ml | 8.48 Log10CFU/ml | 8.9 Log10CFU/ml | 9.1 Log10CFU/ml | not effective to decrease the bacterial count
10 | C[C@H](N)c1nnc([C@@H]2CC[C@@H]3CN2C(=O)N3OS(=O)(=O)O)o1 [Compound I, trans-sulphuric acid mono-[2-(5-((S)-1-amino-ethyl)-[1,3,4]-oxadiazol-2-yl)-7-oxo-1,6-diazabicyclo[3.2.1]-octan-6-yl] ester] | 8.36 Log10CFU/ml | 8.79 Log10CFU/ml | 8.9 Log10CFU/ml | 9.1 Log10CFU/ml | not effective to decrease the bacterial count | 8.36 Log10CFU/ml | 8.79 Log10CFU/ml | 8.9 Log10CFU/ml | 9.1 Log10CFU/ml | not effective to decrease the bacterial count
11 | O=C1N2C[C@@H](CC[C@H]2c2nnc([C@@H]3CCCN3)o2)N1OS(=O)(=O)O [Compound J, trans-sulphuric acid mono-[2-(5-((S)-pyrrolidin-2-yl)-[1,3,4]-oxadiazol-2-yl)-7-oxo-1,6-diazabicyclo[3.2.1]-octan-6-yl] ester] | 8.35 Log10CFU/ml | 8.5 Log10CFU/ml | 8.8 Log10CFU/ml | 9.2 Log10CFU/ml | not effective to decrease the bacterial count | 8.35 Log10CFU/ml | 8.5 Log10CFU/ml | 8.8 Log10CFU/ml | 9.2 Log10CFU/ml | not effective to decrease the bacterial count
12 | C[C@@H](O)[C@H]1C(=O)N2C(C(=O)O)=C(SCCN=CN)C[C@H]12 [Imipenem, reference compound] | 8.28 Log10CFU/ml | 8.7 Log10CFU/ml | 8.9 Log10CFU/ml | 9.2 Log10CFU/ml | – | 8.35 Log10CFU/ml | 8.78 Log10CFU/ml | 8.88 Log10CFU/ml | 9.09 Log10CFU/ml | –
